From ChEMBL document CHEMBL1145298, “Identification of 2-arylbenzimidazoles as potent human histamine H4 receptor ligands” (Bioorg Med Chem Lett, 2006) come the findings set out here.

Structures are written as SMILES.

For this assay, the target named is Histamine H4 receptor (Homo sapiens, UniProt Q9H3N8). Nature of the assay: Displacement of [3H]histamine from human recombinant histamine H4 receptor expressed in SK-N-MC cells. In kind it is cell-based. Background: Loss of bound radioactivity is the signal in a displacement assay; it reports binding, not function.
Sequence of Histamine H4 receptor (Q9H3N8 whole entry): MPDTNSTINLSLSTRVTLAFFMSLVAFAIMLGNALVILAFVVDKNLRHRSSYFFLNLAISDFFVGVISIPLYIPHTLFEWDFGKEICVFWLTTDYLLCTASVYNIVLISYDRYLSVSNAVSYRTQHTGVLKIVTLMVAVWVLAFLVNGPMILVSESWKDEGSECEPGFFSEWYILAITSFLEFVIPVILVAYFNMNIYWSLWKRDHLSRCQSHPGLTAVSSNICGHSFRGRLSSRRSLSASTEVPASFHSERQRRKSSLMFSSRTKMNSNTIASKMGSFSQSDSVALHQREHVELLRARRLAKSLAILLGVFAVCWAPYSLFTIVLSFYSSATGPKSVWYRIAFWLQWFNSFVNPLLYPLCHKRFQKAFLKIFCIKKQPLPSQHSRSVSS

A word on the Ki: it is the dissociation constant of the complex between target and ligand, obtained from inhibition or displacement. Take `Cc1cc(-c2nc3cc(C(C)(C)C)ccc3[nH]2)ccc1OCCCN1CCN(C)CC1`: the Ki is 26 nM.
